Patent publication US10604476B2, “Fluorinated amide derivatives and their uses as therapeutic agents” (Trillium Therapeutics Inc., priority 2015, dated 2020)

Assays:
[1] = test system: Metrazol seizure threshold; assay: Timed intravenous infusion of Metrazol (iv Met) in mouse; format: in vivo; conditions: FIG. 1, p<0.001
Protocol: The iv-Met test provides a measure of a test substance's ability to raise or lower seizure threshold. Two doses of the test compound are usually employed in this test, the MES ED50 and the TD50 determined following ip quantification testing in mice. Randomly selected mice are injected intraperitoneally 2 minutes apart with either the vehicle or the two test drug doses, maintaining the same order of dosing until 30 mice have been injected. At the previously determined TPE, 0.5% heparinized Metrazol solution is infused at a constant rate of 0.34 ml/min into a lateral tail vein of an unrestrained mouse. Infusion is by means of a Sage syringe pump (model 341 A) and a 10 ml B-D plastic syringe connected to a length of No 20 P.E. tubing. A 27 gauge stainless steel needle with the hub removed is connected to the tubing and inserted into a vein, bevel side up and secured to the tail by a narrow piece of adhesive tape. For the placement of the needle, the mouse is restrained in a cone shaped device with only the tail exposed. […] The time in seconds from the start of the infusion to the appearance of the “first twitch” and the onset of sustained clonus is recorded. The times to each endpoint are converted to mg/kg of Metrazol for each mouse as follows: The mean and standard error for each of the 3 groups and the significance of the difference between the test groups and the control are calculated.

[2] = test system: fully kindled (stage 5) seizures, amygdala kindled rat; assay: Amygdala kindled rat model; format: in vivo; conditions: <60 mg/kg i.p.
Excerpt: Amygdala kindling model is an animal model for complex partial seizures, which is the most common type of epilepsy in adults and is often drug resistant.

[3] = test system: LTG-resistant amygdala kindled seizures; assay: Lamotrigine (LTG) resistant amygdala kindled seizure rat model; format: in vivo; conditions: for Duration (sec) ± SD (afterdischarge) / N/F, number of animals active over the number tested / Seizure Score ± SEM: 0.25 hr
Excerpt: The LTG-resistant amygdala kindled rat model is useful for not only identifying compounds effective against secondarily generalized partial seizures, but also allows for the differentiation of compounds that may be effective in therapy-resistant patients. […] Conversely, valproate can both prevent kindling development and block the expression of fully kindled seizures. The addition of the traditional ASDs, carbamazepine or lamotrigine, during the development of kindled seizures in this model will ultimately impair the effectiveness of lamotrigine against a fully expressed kindled seizure. […] This model may serve as a means to identify compounds which may be effective against therapy-resistant seizures. Anesthetized male Sprague-Dawley rats (250-300 g) are surgically implanted with an electrode into the left amygdala. Animals are then allowed to recover for one week before commencing kindling. The kindling procedure consists of delivering a 200 μAmp stimulus (suprathreshold) daily until all animals in both treatment groups display consistent Stage 4 or 5 seizures. One week after all animals are kindled, the animals receive a challenge dose of LTG (30 mg/kg, i.p.) before being stimulated to confirm the LTG sensitivity of the vehicle-treated control animals, as well as the LTG-resistance of the LTG-treated group. The animals are then allowed a washout of 3 days. On day 3 of the washout, the animals are pre-stimulated to ensure recovery of the fully kindled seizure. On day 4, kindled rats are challenged with a dose of an investigational agent (the dose that produced minimal motor impairment) and then challenged with the kindling stimulus at the predetermined TPE of the investigational drug. […] For this study, the ability of a candidate substance to reduce afterdischarge duration (ADD) and behavioral seizure scores (BSS) is quantitated by varying the dose between 0 and 100% effect. Unlike other acute seizure tests conducted by the ETSP, each kindled rat is allowed at least 3-4 days between tests to “washout” any investigational compound after testing. The average seizure scores±S.E.M. and afterdischarge duration (ADD) are noted, as are the number of animals protected from seizure (defined as a Racine score<3) over the number of animals tested.
The following procedure is used for surgical implantation of Electrodes. Male Spraque-Dawey rats are anesthetized using 1-3% isoflurane or a Ketamine/Xylazine cocktail. Ketamine is provided as 100 mg/ml solution, and dose 50 mg/kg given i.p. Xylazine is provided as 100 mg/ml solution, and dose 20 mg/kg given i.p. Mix the two solutions together in one syringe and administer i.p as one injection. Rat is monitored through surgery. If the rat is responsive to a tail pinch administer half the dose of Ketamine/xylazine or increase the isoflurane percentage. Administer buprenorphine at 0.02 mg/kg s.c. for pain management. An electric razor is used to shave the surface of the head. The rat is placed on an external heat source on the stereotaxic apparatus such that the height of the incisor bar and the positioning of the ear bars ensure consistency with the reference atlas. The entire scalp is scrubbed with betadine (3×) and wiped with alcohol. Ophthalmic ointment is applied to each eye. All instruments are sterilized via autoclave before beginning surgery. During surgery instruments are placed on a sterile drape. For subsequent surgeries on the same day, instruments can be placed into the hot bead sterilizer between surgeries. Stainless steel screws and electrodes are sterilized in 70% alcohol and place on a sterile drape. A sterile scalpel blade is used to make a midline scalp incision beginning from a point even with the eyes and extending back to and imaginary line connecting the ear. The fascia should be gently split and pulled away by from the scalp. The incision can be held open using retractors/forceps. […]

cold allodynia = assay: Spinal nerve injury (SNI) model, acetone test; format: in vivo, rat
Excerpt: The SNI model of neuropathic pain was developed in rats using the procedure described by Decostered and Woolf, Pain 2000, 87: 149-158. Under isoflurane anesthesia, the skin on the lateral surface of the thigh was incised and a section was made directly through the biceps femoris muscle exposing the sciatic nerve and its three terminal branches: the sural, common peroneal and tibial nerves. The common peroneal and the tibial nerves were tight-ligated with 6-0 suture and sectioned distal to the ligation, removing 2-4 mm of the distal nerve stump. Extreme care was taken to avoid any contact with or stretching of the intact sural nerve. Following surgery, hemostasis was confirmed and the muscles were sutured in layers using 4-0 suture and the skin was closed with 4-0 suture and metal clips. Cold allodynia was assessed by using the acetone test. In this test, 25 μl of acetone is sprayed on to the plantar surface of the hind paw. Evaporation of acetone causes cooling of the skin. The cold stimulus sets up nociceptive responses from the injured paw as evidenced by paw lifting, paw licking and grooming. The duration of the nociceptive responses is noted.

## C[C@@H](Oc1cc(Cl)cc(C(F)(F)F)c1)C(N)=O [I(D), (2R)-2-[3-chloro-5-(trifluoromethyl)-phenoxy]propanamide]
[1]
  seizure threshold (time to twitch, time to clonus, total dose of pentylenetetrazol to first twitch or clonus): elevate seizure threshold
[2]
  suppression of fully kindled (stage 5) seizures compared to vehicle controls: dose related suppression
[3]; 10 mg/kg i.p.
  Duration (sec) ± SD (afterdischarge): 158.5 ± 21.5 s
  N/F, number of animals active over the number tested: 0/2
  Seizure Score ± SEM: 5 ± 0.0
[3]; 25 mg/kg i.p.
  Duration (sec) ± SD (afterdischarge): 71.0 ± 13.61 s
  N/F, number of animals active over the number tested: 1/5
  Seizure Score ± SEM: 4.4 ± 0.6
[3]; 37.5 mg/kg i.p.
  Duration (sec) ± SD (afterdischarge): 54.2 ± 10.38 s
  N/F, number of animals active over the number tested: 3/5
  Seizure Score ± SEM: 3.2 ± 0.75
[3]; 50 mg/kg i.p.
  Duration (sec) ± SD (afterdischarge): 71.0 ± 13.61 s
  N/F, number of animals active over the number tested: 6/6
  Seizure Score ± SEM: 0.83 ± 0.17
[3]; i.p., LTG-resistant kindled rats
  EC50, reduction of seizure score (seizure severity): 32.55 ± 3.58 mg/kg

## NC(=O)COc1cc(C(F)(F)F)cc(C(F)(F)F)c1 [I(F), 2-[3,5 bis(trifluoromethyl)-phenoxy]acetamide;]
Cold allodynia
  cold allodynia in the neuropathic rats: significantly reduced
